PubChem BioAssay AID2060890 (Molecular Pharmacology Branch, DTP, NCI, 2025)
pIC50: −log10 of the molar value.

Tested on: LG0703-F948-PDC complex spheroid viability
Test: Anticancer human tumor LG0703-F948-PDC patient-derived lung adenocarcinoma cell line growth inhibition [RAS]
Details: for pIC50: curve of first compound; for viability, T/C: stronger effect = lower value
Summary of the method: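 Tumour cells grown as complex spheroids with HUVEC endothelial cells and mesenchymal stem cells, treated with RAS pathway inhibitor combinations. Each agent spans half-log steps from near clinical Cmax, or 10 microM where Cmax is unknown.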
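Note: spheroids exposed to agents for 7 days.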
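Throughout, for viability, T/C: 100% = DMSO vehicle wells.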

SMILES: CCc1c2c(nc3ccc(O)cc13)-c1cc3c(c(=O)n1C2)COC(=O)[C@]3(O)CC + CCn1c(-c2cc(N3CCN(C)CC3)cnc2C(C)OC)c2c3cc(ccc31)-c1csc(n1)CC(NC(=O)C1CC1C)C(=O)N1CCCC(N1)C(=O)OCC(C)(C)C2
- pIC50 (second compound 0.000949 µM): 7.17
- pIC50 (second compound 0.003 µM): > 9.02
- pIC50 (second compound 0.00949 µM): > 9.02
- pIC50 (second compound 0.03 µM): > 9.02
- pIC50 (second compound 0.0949 µM): > 9.02
- pIC50 (second compound 0.3 µM): > 9.02
- viability, T/C (second compound 0.000949 µM, first compound 0.000949 µM): 74.3%
- viability, T/C (second compound 0.000949 µM, first compound 0.003 µM): 84.5%
- viability, T/C (second compound 0.000949 µM, first compound 0.00949 µM): 54.4%
- viability, T/C (second compound 0.000949 µM, first compound 0.03 µM): 62%
- viability, T/C (second compound 0.000949 µM, first compound 0.0949 µM): 49.7%
- viability, T/C (second compound 0.000949 µM, first compound 0.3 µM): 24.4%
- viability, T/C (second compound 0.003 µM, first compound 0.000949 µM): 46.3%
- viability, T/C (second compound 0.003 µM, first compound 0.003 µM): 44.4%
- viability, T/C (second compound 0.003 µM, first compound 0.00949 µM): 46%
- viability, T/C (second compound 0.003 µM, first compound 0.03 µM): 40.1%
- viability, T/C (second compound 0.003 µM, first compound 0.0949 µM): 31.9%
- viability, T/C (second compound 0.003 µM, first compound 0.3 µM): 20%
- viability, T/C (second compound 0.00949 µM, first compound 0.000949 µM): 25.6%
- viability, T/C (second compound 0.00949 µM, first compound 0.003 µM): 19%
- viability, T/C (second compound 0.00949 µM, first compound 0.00949 µM): 19.7%
- viability, T/C (second compound 0.00949 µM, first compound 0.03 µM): 17%
- viability, T/C (second compound 0.00949 µM, first compound 0.0949 µM): 17.2%
- viability, T/C (second compound 0.00949 µM, first compound 0.3 µM): 11.3%
- viability, T/C (second compound 0.03 µM, first compound 0.000949 µM): 13.3%
- viability, T/C (second compound 0.03 µM, first compound 0.003 µM): 17.8%
- viability, T/C (second compound 0.03 µM, first compound 0.00949 µM): 13.5%
- viability, T/C (second compound 0.03 µM, first compound 0.03 µM): 15.7%
- viability, T/C (second compound 0.03 µM, first compound 0.0949 µM): 10.4%
- viability, T/C (second compound 0.03 µM, first compound 0.3 µM): 9.39%
- viability, T/C (second compound 0.0949 µM, first compound 0.000949 µM): 14.1%
- viability, T/C (second compound 0.0949 µM, first compound 0.003 µM): 12.5%
- viability, T/C (second compound 0.0949 µM, first compound 0.00949 µM): 9.68%
- viability, T/C (second compound 0.0949 µM, first compound 0.03 µM): 9.08%
- viability, T/C (second compound 0.0949 µM, first compound 0.0949 µM): 12.3%
- viability, T/C (second compound 0.0949 µM, first compound 0.3 µM): 9.68%
- viability, T/C (second compound 0.3 µM, first compound 0.000949 µM): 11.7%
- viability, T/C (second compound 0.3 µM, first compound 0.003 µM): 9.88%
- viability, T/C (second compound 0.3 µM, first compound 0.00949 µM): 8.36%
- viability, T/C (second compound 0.3 µM, first compound 0.03 µM): 8.45%
- viability, T/C (second compound 0.3 µM, first compound 0.0949 µM): 7.32%
- viability, T/C (second compound 0.3 µM, first compound 0.3 µM): 4.88%
